Measurements published in US20220132847A1, “CINNOLINIUM COMPOUNDS FOR USE IN A METHOD OF CONTROLLING UNWANTED PLANT GROWTH” (SYNGENTA CROP PROTECTION AG, priority 2019, published 2022).

Tests used:
Test in all cases: Post-emergence efficacy, glasshouse
Assay type in all cases: in vivo
[1] = test system: Amaranthus palmeri (AMAPA); conditions: Application Rate 1000 g/Ha, evaluated after 13 days, 100=total damage to plant, 0=no damage to plant; for pest or weed control at 1000 g/ha: Amaranthus palmeri, post-emergence, 312 h, read-out: Control of weed species after post-emergence application, AMAPA
Procedure, shortened: (§1)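 Plants grown 14 days in standard soil in pots in the glasshouse (24/16° C. day/night, 14 h light, 65% humidity) were sprayed with test compound diluted in 0.25% or 1% Empicol ESC70 plus 1% ammonium sulphate in water. Damage was scored 13 days later (0 = none, 100 = total).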

[2] = test system: Chenopodium album (CHEAL); conditions: Application Rate 1000 g/Ha, evaluated after 13 days, 100=total damage to plant, 0=no damage to plant; for pest or weed control at 1000 g/ha: Chenopodium album, post-emergence, 312 h, read-out: Control of weed species after post-emergence application, CHEAL
Procedure, shortened: as §1

[3] = test system: Digitaria sanguinalis (DIGSA); conditions: Application Rate 1000 g/Ha, evaluated after 13 days, 100=total damage to plant, 0=no damage to plant; for pest or weed control at 1000 g/ha: Digitaria sanguinalis, post-emergence, 312 h, read-out: Control of weed species after post-emergence application, DIGSA
Procedure, shortened: as §1

[4] = test system: Echinochloa crus-galli (ECHCG); conditions: Application Rate 1000 g/Ha, evaluated after 13 days, 100=total damage to plant, 0=no damage to plant; for pest or weed control at 1000 g/ha: Echinochloa crus-galli, post-emergence, 312 h, read-out: Control of weed species after post-emergence application, ECHCG
Procedure, shortened: as §1

Eleusine indica (ELEIN) = conditions: Application Rate 1000 g/Ha, evaluated after 13 days, 100=total damage to plant, 0=no damage to plant; for pest or weed control at 1000 g/ha: Eleusine indica, post-emergence, 312 h, read-out: Control of weed species after post-emergence application, ELEIN
Procedure, shortened: as §1

[5] = test system: Euphorbia heterophylla (EPHHL); conditions: Application Rate 1000 g/Ha, evaluated after 13 days, 100=total damage to plant, 0=no damage to plant; for pest or weed control at 1000 g/ha: Euphorbia heterophylla, post-emergence, 312 h, read-out: Control of weed species after post-emergence application, EPHHL
Procedure, shortened: as §1

[6] = test system: Ipomoea hederacea (IPOHE); conditions: Application Rate 1000 g/Ha, evaluated after 13 days, 100=total damage to plant, 0=no damage to plant; for pest or weed control at 1000 g/ha: Ipomoea hederacea, post-emergence, 312 h, read-out: Control of weed species after post-emergence application, IPOHE
Procedure, shortened: as §1

Lolium perenne (LOLPE) = conditions: Application Rate 1000 g/Ha, evaluated after 13 days, 100=total damage to plant, 0=no damage to plant; for pest or weed control at 1000 g/ha: Lolium perenne, post-emergence, 312 h, read-out: Control of weed species after post-emergence application, LOLPE
Procedure, shortened: as §1

Setaria faberi (SETFA) = conditions: Application Rate 1000 g/Ha, evaluated after 13 days, 100=total damage to plant, 0=no damage to plant; for pest or weed control at 1000 g/ha: Setaria faberi, post-emergence, 312 h, read-out: Control of weed species after post-emergence application, SETFA
Procedure, shortened: as §1

Compound	pest or weed control at 1000 g/ha [1]	pest or weed control at 1000 g/ha [2]	pest or weed control at 1000 g/ha [3]	pest or weed control at 1000 g/ha [4]	pest or weed control at 1000 g/ha (Eleusine indica (ELEIN))	pest or weed control at 1000 g/ha [5]	pest or weed control at 1000 g/ha [6]	pest or weed control at 1000 g/ha (Lolium perenne (LOLPE))	pest or weed control at 1000 g/ha (Setaria faberi (SETFA))	Control of weed species after post-emergence application, AMAPA [1]	Control of weed species after post-emergence application, CHEAL [2]	Control of weed species after post-emergence application, DIGSA [3]	Control of weed species after post-emergence application, ECHCG [4]	Control of weed species after post-emergence application, ELEIN (Eleusine indica (ELEIN))	Control of weed species after post-emergence application, EPHHL [5]	Control of weed species after post-emergence application, IPOHE [6]	Control of weed species after post-emergence application, LOLPE (Lolium perenne (LOLPE))	Control of weed species after post-emergence application, SETFA (Setaria faberi (SETFA))
C[n+]1cc(P(=O)([O-])O)c2ccccc2n1 [Compound A78, hydroxy-(2-methylcinnolin-2-ium-4-yl)phosphinate]	30%	10%	50%	50%	40%	70%	10%	10%	40%									
O=P(O)(O)CCCc1c[n+](CCCP(=O)(O)O)nc2ccccc12 [Compound A82, 3-[2-(3-phosphonopropyl)cinnolin-2-ium-4-yl]propylphosphonic acid chloride]	30%	0%	10%	20%	10%	20%	10%	10%	0%									
ethoxy-[(2-methylcinnolin-2-ium-4-yl)methyl]phosphinic acid [Compound A51]										90	60	90	70	80	90	60	20	90
